According to the supplement of paper PMC10307832:

What was measured:
Experiment in all cases: relative viability (nuclei count vs DMSO), 5 days (fraction); higher = more cells survive
Ruxolitinib + Pemetrexed = compound: N#CC[C@H](C1CCCC1)n1cc(-c2ncnc3[nH]ccc23)cn1 [Ruxolitinib] + Nc1nc2[nH]cc(CCc3ccc(C(=O)N[C@@H](CCC(=O)O)C(=O)O)cc3)c2c(=O)[nH]1 [Pemetrexed] (partner 0.2 µM)
Summary of the method: (§1)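 A single step with final 0.05% Triton X-100, 1% formaldehyde and 1 ug/ml Hoechst fixed the cells and stained nuclei 5 days after treatment. Lung cancer cell lines in 1536-well plates had been treated by pin tool the day after seeding with one drug alone or a fixed anchor-drug dose plus five library-drug doses (not always all listed) in √10 steps, and nuclei were counted on 4× images. Relative viability is the ratio of nuclei in treated wells to nuclei in vehicle wells, taken as the median of duplicate plates.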

Vismodegib + Linsitinib = compound: CS(=O)(=O)c1ccc(C(=O)Nc2ccc(Cl)c(-c3ccccn3)c2)c(Cl)c1 [Vismodegib] + C[C@]1(O)C[C@@H](c2nc(-c3ccc4ccc(-c5ccccc5)nc4c3)c3c(N)nccn32)C1 [Linsitinib] (partner 1 µM)
Summary of the method: as §1

Vismodegib + Pictilisib = compound: CS(=O)(=O)c1ccc(C(=O)Nc2ccc(Cl)c(-c3ccccn3)c2)c(Cl)c1 [Vismodegib] + CS(=O)(=O)N1CCN(Cc2cc3nc(-c4cccc5[nH]ncc45)nc(N4CCOCC4)c3s2)CC1 [Pictilisib] (partner 1 µM)
Summary of the method: as §1

[1] = compound: N#CC[C@H](C1CCCC1)n1cc(-c2ncnc3[nH]ccc23)cn1 [Ruxolitinib] + CC(=O)c1c(C)c2cnc(Nc3ccc(N4CCNCC4)cn3)nc2n(C2CCCC2)c1=O [Palbociclib] (partner 0.5 µM)
Summary of the method: as §1

Cell Line	relative viability (Ruxolitinib + Pemetrexed; first compound 0.08 µM)	relative viability (Ruxolitinib + Pemetrexed; first compound 0.253 µM)	relative viability (Ruxolitinib + Pemetrexed; first compound 0.8 µM)	relative viability (Ruxolitinib + Pemetrexed; first compound 2.53 µM)	relative viability (Ruxolitinib + Pemetrexed; first compound 8 µM)	relative viability (Vismodegib + Linsitinib; first compound 0.08 µM)	relative viability (Vismodegib + Linsitinib; first compound 0.253 µM)	relative viability (Vismodegib + Linsitinib; first compound 0.8 µM)	relative viability (Vismodegib + Linsitinib; first compound 2.53 µM)	relative viability (Vismodegib + Linsitinib; first compound 8 µM)	relative viability (Vismodegib + Pictilisib; first compound 0.08 µM)	relative viability (Vismodegib + Pictilisib; first compound 0.253 µM)	relative viability (Vismodegib + Pictilisib; first compound 0.8 µM)	relative viability (Vismodegib + Pictilisib; first compound 2.53 µM)	relative viability (Vismodegib + Pictilisib; first compound 8 µM)	relative viability ([1]; first compound 0.08 µM)	relative viability ([1]; first compound 0.253 µM)	relative viability ([1]; first compound 0.8 µM)	relative viability ([1]; first compound 2.53 µM)	relative viability ([1]; first compound 8 µM)
NCI-H23	0.779	0.787	0.755	0.708	0.564	0.591	0.511	0.643	0.488	0.677	0.535	0.462	0.432	0.452	0.425	0.538	0.485	0.604	0.426	0.34
EMC-BAC-2	0.454	0.419	0.431	0.439	0.368	0.785	0.803	0.914	0.776	0.82	0.541	0.516	0.588	0.529	0.461	0.518	0.507	0.58	0.47	0.418
NCI-H2009	1.03	1.03	1.03	0.936	0.745	1.14	1.18	1.19	1.16	1.26	0.818	0.858	0.727	0.812	0.908	0.289	0.216	0.241	0.154	0.139
NCI-H460	0.0622	0.0628	0.0588	0.0628	0.063	0.732	0.74	0.773	0.733	1.08	0.3	0.385	0.286	0.318	0.313	0.173	0.159	0.165	0.0961	0.155
201T	0.336	0.338	0.389	0.325	0.299	0.954	1.09	1	0.978	1.01	0.712	0.67	0.641	0.673	0.66	0.366	0.362	0.407	0.433	0.397
NCI-H1993	0.662	0.525	0.618	0.633	0.621	0.737	0.816	0.669	0.677	0.775	0.875	0.947	0.771	0.792	0.822	0.519	0.552	0.807	0.68	0.707
RERF-LC-KJ	0.471	0.485	0.505	0.465	0.456	0.846	0.922	0.796	0.823	0.839	0.585	0.496	0.663	0.567	0.561	1.03	1.13	1.25	1.13	0.934
NCI-H1755	0.459	0.448	0.414	0.407	0.42	0.926	0.969	1.02	1	0.999	0.43	0.406	0.471	0.448	0.449	0.505	0.468	0.466	0.452	0.391
NCI-H1666	1.01	0.814	0.988	0.786	0.887	0.877	0.871	0.69	0.773	0.967	0.341	0.41	0.42	0.434	0.537	0.66	0.613	0.654	0.675	0.632
NCI-H2085	0.918	0.825	1.09	0.783	0.653	0.843	0.874	0.957	0.86	0.52	0.418	0.447	0.377	0.444	0.417	0.453	0.468	0.474	0.39	0.369
BEN	0.534	0.744	0.818	0.688	0.95	0.951	0.939	0.929	0.964	0.99	0.614	0.602	0.537	0.541	0.583	0.488	0.456	0.504	0.503	0.51
NCI-H661	0.925	0.959	0.939	1	0.809	0.5	0.497	0.575	0.522	0.579	0.3	0.392	0.403	0.331	0.367	0.425	0.436	0.427	0.417	0.381
NCI-H1395	0.662	0.685	0.856	0.97	0.729	1.07	1.36	0.961	0.961	1.18	0.573	0.593	0.491	0.631	0.752	0.596	0.555	0.674	0.636	0.572
LCLC-97TM1	0.21	0.21	0.184	0.175	0.147	–	–	0.174	–	0.211	–	–	0.125	–	0.158	0.235	0.185	0.213	0.192	0.213
HCC-827	–	0.249	0.231	0.258	0.274	0.926	0.906	0.949	0.896	1.04	1.22	1.06	0.834	0.854	0.97	–	0.275	0.408	0.366	0.411
NCI-H1734	0.399	0.366	0.437	0.369	0.456	0.878	0.831	0.878	0.825	1.01	0.429	0.446	0.429	0.469	0.512	0.374	0.299	0.337	0.345	0.354
NCI-H1651	0.578	0.597	0.593	0.599	0.643	0.922	0.924	0.925	0.931	0.961	0.579	0.549	0.523	0.54	0.637	0.506	0.496	0.524	0.502	0.525

Cell Line	relative viability (Ruxolitinib + Pemetrexed; first compound 0.08 µM)	relative viability (Ruxolitinib + Pemetrexed; first compound 0.253 µM)	relative viability (Ruxolitinib + Pemetrexed; first compound 0.8 µM)	relative viability (Ruxolitinib + Pemetrexed; first compound 2.53 µM)	relative viability (Ruxolitinib + Pemetrexed; first compound 8 µM)	relative viability (Vismodegib + Linsitinib; first compound 0.08 µM)	relative viability (Vismodegib + Linsitinib; first compound 0.253 µM)	relative viability (Vismodegib + Linsitinib; first compound 0.8 µM)	relative viability (Vismodegib + Linsitinib; first compound 2.53 µM)	relative viability (Vismodegib + Linsitinib; first compound 8 µM)	relative viability (Vismodegib + Pictilisib; first compound 0.08 µM)	relative viability (Vismodegib + Pictilisib; first compound 0.253 µM)	relative viability (Vismodegib + Pictilisib; first compound 0.8 µM)	relative viability (Vismodegib + Pictilisib; first compound 2.53 µM)	relative viability (Vismodegib + Pictilisib; first compound 8 µM)	relative viability ([1]; first compound 0.08 µM)	relative viability ([1]; first compound 0.253 µM)	relative viability ([1]; first compound 0.8 µM)	relative viability ([1]; first compound 2.53 µM)	relative viability ([1]; first compound 8 µM)
NCI-H1975	0.283	0.334	0.329	0.318	0.266	0.87	0.919	0.975	0.908	0.977	0.294	0.311	0.264	0.304	0.307	0.492	0.395	0.612	0.469	0.277
NCI-H1437	0.469	0.292	0.304	0.319	0.254	0.855	0.977	1.03	0.95	0.892	0.504	0.487	0.47	0.536	0.483	0.541	0.41	0.448	0.417	0.378
HOP-62	0.324	0.363	0.299	0.314	0.323	0.988	0.873	1.16	0.748	0.979	0.751	0.703	0.759	0.815	0.656	0.454	0.451	0.45	0.435	0.411
NCI-H2405	1.07	1.11	1.13	0.895	0.592	–	0.859	0.806	0.776	1.07	–	0.441	0.373	0.341	0.531	0.52	0.514	0.589	0.295	0.389
SK-MES-1	1.03	0.865	1.01	0.849	0.823	1.04	1.07	1.08	0.973	1.07	0.358	0.348	0.363	0.348	0.344	0.331	0.336	0.332	0.305	0.321
LC-2-ad	0.287	0.306	0.306	0.26	0.272	0.824	0.794	0.849	0.82	0.828	0.49	0.503	0.513	0.643	0.421	0.544	0.511	0.533	0.473	0.409
NCI-H1944	0.671	0.68	0.651	0.65	0.694	1.15	1.33	1.16	1.19	1.2	0.354	0.349	0.308	0.327	0.345	0.33	0.321	0.375	0.31	0.318
NCI-H322M	0.641	0.605	0.662	0.628	0.639	0.771	1.01	0.975	0.958	0.924	0.544	0.445	0.527	0.484	0.509	0.503	0.488	0.536	0.645	0.563
HCC-366	0.162	0.193	0.155	0.192	0.147	0.628	0.636	0.575	0.563	0.703	0.16	0.17	0.148	0.137	0.131	0.417	0.441	0.389	0.365	0.19
HCC-78	0.919	0.952	0.857	0.892	0.955	0.474	0.477	0.406	0.588	0.488	0.19	0.189	0.176	0.206	0.234	0.422	0.481	0.431	0.507	0.492
CAL-12T	1.15	1.18	1.22	0.993	0.802	0.927	0.765	0.95	0.722	0.679	–	0.509	0.263	0.241	0.36	0.316	0.334	0.461	0.363	0.223
NCI-H2228	0.332	0.342	0.318	0.324	0.321	0.972	0.855	0.835	0.467	0.763	0.493	0.538	0.359	0.413	0.347	0.622	0.812	0.843	0.713	0.219
EKVX	–	0.403	0.41	0.402	0.237	0.949	1.04	0.929	0.894	0.989	0.47	0.462	0.391	0.355	0.395	–	0.358	0.393	0.34	0.333
HARA	0.206	0.27	0.225	0.221	0.229	0.844	0.944	0.76	0.967	1.04	0.472	0.423	0.417	0.396	0.448	0.301	0.273	0.286	0.228	0.253
LXF-289	0.866	0.943	0.925	0.933	0.852	0.959	0.929	0.98	0.976	0.919	0.735	0.783	0.765	0.883	0.802	0.539	0.598	0.626	0.599	0.565
NCI-H1793	0.835	0.938	1.15	1.06	0.664	–	0.701	0.903	1.04	0.824	–	0.413	0.411	0.367	0.325	0.291	0.287	0.307	0.319	0.335
